Measurements: patent US10174016B2 (BAYER AKTIENGESELLSCHAFT, priority 2014, dated 2019)
Where two headings read alike, the source gives them in different places.

Columns and labels:
human P2X3 receptor = human P2X3 receptor (Homo sapiens (Human), UniProt P56373); test: Intracellular calcium measurement (FLIPR, Fluo-4) of antagonist activity at human P2X3 receptors; assay type: cell-based; details: read-out: hP2X3 IC50
How it was run: (§1)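 Antagonism quantified from peak calcium fluorescence (Fluo-4, FLIPR, 90 sec read) evoked by EC80 α,β-Me-ATP, after a 30 min, 37° C. compound pretreatment in 1% DMSO. Human P2X3- or P2X2/3-expressing cells used; triplicate means fitted for IC50, percent maximal inhibition and Hill coefficient.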

human P2X2/3 receptor = human P2X2/3 receptor (Homo sapiens (Human), UniProt P56373+Q9UBL9); test: Intracellular calcium measurement (FLIPR, Fluo-4) of antagonist activity at human P2X2/3 receptors; assay type: cell-based; details: human P2X2/3, FLIPR calcium assay, agonist α,β-Me-ATP; read-out: hP2X2/3 IC50
human P2X2/3 receptor, sequence (P56373 whole entry): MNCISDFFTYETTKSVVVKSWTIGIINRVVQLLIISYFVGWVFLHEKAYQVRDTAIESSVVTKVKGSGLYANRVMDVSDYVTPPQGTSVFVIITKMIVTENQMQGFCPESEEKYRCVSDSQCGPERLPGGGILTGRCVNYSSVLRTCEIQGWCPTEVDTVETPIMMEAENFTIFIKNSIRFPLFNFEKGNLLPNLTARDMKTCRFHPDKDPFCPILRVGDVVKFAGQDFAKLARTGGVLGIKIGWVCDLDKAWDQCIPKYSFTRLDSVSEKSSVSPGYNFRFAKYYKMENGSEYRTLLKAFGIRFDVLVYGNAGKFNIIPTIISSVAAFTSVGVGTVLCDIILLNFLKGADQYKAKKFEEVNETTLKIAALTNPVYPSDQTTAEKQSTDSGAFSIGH
human P2X2/3 receptor, sequence (Q9UBL9 whole entry): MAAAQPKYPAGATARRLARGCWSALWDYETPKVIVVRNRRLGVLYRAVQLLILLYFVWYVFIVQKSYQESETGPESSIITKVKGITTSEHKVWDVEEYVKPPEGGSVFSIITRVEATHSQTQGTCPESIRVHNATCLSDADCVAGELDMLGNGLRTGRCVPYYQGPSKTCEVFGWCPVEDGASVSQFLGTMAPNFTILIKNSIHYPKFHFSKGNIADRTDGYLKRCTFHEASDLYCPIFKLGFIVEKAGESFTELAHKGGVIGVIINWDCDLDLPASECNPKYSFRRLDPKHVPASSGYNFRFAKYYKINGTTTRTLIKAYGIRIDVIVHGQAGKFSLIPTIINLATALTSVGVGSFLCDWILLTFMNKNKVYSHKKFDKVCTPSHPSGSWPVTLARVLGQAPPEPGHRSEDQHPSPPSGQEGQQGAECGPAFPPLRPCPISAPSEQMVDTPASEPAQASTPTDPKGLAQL
How it was run: as §1

[1] = human P2X3, FLIPR calcium assay, agonist α,β-Me-ATP

human P2X3 receptor, sequence (P56373 whole entry): as the sequence (P56373 whole entry) above

Row | Structure (SMILES) | IC50 (human P2X3 receptor; [1]) | IC50 (human P2X2/3 receptor) | IC50 (human P2X3 receptor)
1 | Cc1cnc(-c2cc(OC3CC4(C3)CN(C)C4)cc(C(=O)N[C@H](C)c3cnc(C(F)(F)F)nc3)c2)s1 [Example 214, 3-[(2-methyl-2-azaspiro [3.3]hept-6-yl)oxy]-5-(5-methyl-1,3-thiazol-2-yl)-N-{(1R)-1-[2-(trifluoromethyl)pyrimidin-5-yl]ethyl} benzamide] | 47 nM | 3390 nM | 
2 | Cc1cnc(-c2cc(OC3CCN(C)CC3)cc(C(=O)N[C@H](C)c3cnc(C(F)F)nc3)c2)s1 [Example 215] |  | 992 nM | 16 nM
3 | Cc1cnc(-c2cc(O[C@H]3C[C@H]4CC[C@@H](C3)N4C)cc(C(=O)N[C@H](C)c3cnc(C(F)(F)F)nc3)c2)s1 [Example 216, 3-{[(3-endo)-8-methyl-8-azabicyclo[3.2.1]oct-3-yl]oxy}-5-(5-methyl-1,3-thiazol-2-yl)-N-{(1R)-1-[2-(trifluoromethyl)pyrimidin-5-yl]ethyl} benzamide] | 14 nM | 928 nM | 
4 | Cc1cnc(-c2cc(O[C@@H]3C[C@H]4CC[C@@H](C3)N4C)cc(C(=O)N[C@H](C)c3cnc(C(F)(F)F)nc3)c2)s1 [Example 217, 3-{[(3-exo)-8-methyl-8-azabicyclo[3.2.1]oct-3-yl]oxy}-5-(5-methyl-1,3-thiazol-2-yl)-N-{(1R)-1-[2-(trifluoromethyl)pyrimidin-5-yl]ethyl} benzamide] | 25 nM | 1750 nM | 
5 | Cc1cnc(-c2cc(O[C@H]3CCN(C(C)C)C3)cc(C(=O)N[C@H](C)c3cnc(C(F)(F)F)nc3)c2)s1 [Example 225, 3-(5-methyl-1,3-thiazol-2-yl)-5-{[(3S)-1-(propan-2-yl)pyrrolidin-3-yl]oxy}-N-{(1R)-1-[2-(trifluoromethyl)pyrimidin-5-yl]ethyl}benzamide] | 16 nM | 1140 nM | 
6 | CCOC(=O)N1CCC(Oc2cc(C(=O)N[C@H](C)c3cnc(C(F)(F)F)nc3)cc(-c3ncc(C)s3)c2)CC1 [Example 227, Ethyl 4-[3-(5-methyl-1,3-thiazol-2-yl)-5-({(1R)-1-[2-(trifluoromethyl)pyrimidin-5-yl]ethyl}carbamoyl)phenoxy]piperidine-1-carboxylate] | 13 nM | 161 nM | 
7 | Cc1cnc(-c2cc(OC3CN(C(C)C)C3)cc(C(=O)N[C@H](C)c3cnc(C(F)(F)F)nc3)c2)s1 [Example 229, 3-(5-Methyl-1,3-thiazol-2-yl)-5-{[1-(propan-2-yl)azetidin-3-yl]oxy}-N-{(1R)-1-[2-(trifluoromethyl)pyrimidin-5-yl]ethyl}benzamide] | 44 nM | 2280 nM | 
8 | Cc1cnc(-c2cc(OC3CCS(=O)(=O)CC3)cc(C(=O)N[C@H](C)c3cnc(C(F)(F)F)nc3)c2)s1 [Example 232, 3-[(1,1-dioxidotetrahydro-2H-thiopyran-4-yl)oxy]-5-(5-methyl-1,3-thiazol-2-yl)-N-{(1R)-1-[2-(trifluoromethyl)pyrimidin-5-yl]ethyl}benzamide] | 13 nM | 759 nM | 
9 | Cc1cnc(-c2cc(OC3CCS(=O)(=O)CC3)cc(C(=O)N[C@H](C)c3ccc(C(F)(F)F)nc3)c2)s1 [Example 233, 3-[(1,1-dioxidotetrahydro-2H-thiopyran-4-yl)oxy]-5-(5-methyl-1,3-thiazol-2-yl)-N-{(1R)-1-[6-(trifluoromethyl)pyridin-3-yl]ethyl}benzamide] | 16 nM | 753 nM | 
10 | CCc1cnc(-c2cc(OC3CCOCC3)cc(C(=O)NCc3ccc(C)nn3)c2)s1 [Example 235, 3-(5-ethyl-1,3-thiazol-2-yl)-N-[(6-methylpyridazin-3-yl)methyl]-5-(tetrahydro-2H-pyran-4-yloxy)benzamide] | 18 nM | 70 nM | 
11 | Cc1ccc(CNC(=O)c2cc(OC3CCOCC3)cc(-c3ncc(C4CCC4)s3)c2)nn1 [Example 237, 3-(5-cyclobutyl-1,3-thiazol-2-yl)-N-[(6-methylpyridazin-3-yl)methyl]-5-(tetrahydro-2H-pyran-4-yloxy)benzamide] | 177 nM | 537 nM | 
12 | C[C@@H](NC(=O)c1cc(OC2CCOCC2)cc(-c2ncc(C3CCC3)s2)c1)c1cnc(C(F)(F)F)nc1 [Example 238, 3-(5-cyclobutyl-1,3-thiazol-2-yl)-5-(tetrahydro-2H-pyran-4-yloxy)-N-{(1R)-1-[2-(trifluoromethyl)pyrimidin-5-yl]ethyl}benzamide] | 38 nM | 397 nM | 
13 | C[C@H](NC(=O)c1cc(OC[C@H]2CCOC2)cc(-c2ncc(C3CCC3)s2)c1)c1cnc(C(F)(F)F)nc1 [Example 239, 3-(5-cyclobutyl-1,3-thiazol-2-yl)-5-[(3S)-tetrahydrofuran-3-ylmethoxy]-N-{(1S)-1-[2-(trifluoromethyl)pyrimidin-5-yl]ethyl}benzamide] | 1420 nM | 2170 nM | 
14 | CCc1cnc(-c2cc(O[C@@H]3CCOC3)cc(C(=O)N[C@H](C)c3ccc(C)nn3)c2)s1 [Example 240, 3-(5-ethyl-1,3-thiazol-2-yl)-N-[(1R)-1-(6-methylpyridazin-3-yl)ethyl]-5-[(3R)-tetrahydrofuran-3-yloxy]benzamide] | 12 nM | 35 nM | 
15 | Cc1ccc([C@@H](C)NC(=O)c2cc(O[C@@H]3CCOC3)cc(-c3ncc(C(C)C)s3)c2)nn1 [Example 246, N-[(1R)-1-(6-methylpyridazin-3-yl)ethyl]-3-[5-(propan-2-yl)-1,3-thiazol-2-yl]-5-[(3R)-tetrahydrofuran-3-yloxy]benzamide] | 266 nM | 982 nM | 
16 | CC(C)c1cnc(-c2cc(O[C@@H]3CCOC3)cc(C(=O)N[C@H](C)c3cnc(C(F)(F)F)nc3)c2)s1 [Example 248, 3-[5-(propan-2-yl)-1,3-thiazol-2-yl]-5-[(3R)-tetrahydrofuran-3-yloxy]-N-{(1R)-1-[2-(trifluoromethyl)pyrimidin-5-yl]ethyl}benzamide] | 44 nM | 273 nM | 
17 | CCc1cnc(-c2cc(O[C@H]3CCOC3)cc(C(=O)N[C@H](C)c3ccc(C)nn3)c2)s1 [Example 249, 3-(5-ethyl-1,3-thiazol-2-yl)-N-[(1R)-1-(6-methylpyridazin-3-yl)ethyl]-5-[(3S)-tetrahydrofuran-3-yloxy]benzamide] | 11 nM | 57 nM | 

Further compounds by falling IC50 (human P2X3 receptor; [1]), results first:

Row | IC50 (human P2X3 receptor; [1]) | IC50 (human P2X2/3 receptor) | Structure (SMILES) | IC50 (human P2X3 receptor)
18 | 9 nM | 569 nM | Cc1cnc(-c2cc(OC3CCN(C(C)C)CC3)cc(C(=O)N[C@H](C)c3ccc(C(F)(F)F)nn3)c2)s1 [Example 224, 3-(5-Methyl-1,3-thiazol-2-yl)-5-{[1-(propan-2-yl)piperidin-4-yl]oxy}-N-{(1R)-1-[6-(trifluoromethyl)pyridazin-3-yl]ethyl}benzamide] | 
19 | 7 nM | 281 nM | Cc1cnc(-c2cc(O[C@@H]3CC[C@H]4[C@H]3OCCN4C)cc(C(=O)N[C@H](C)c3cnc(C(F)(F)F)nc3)c2)s1 [Example 218, 3-{[(4aS,7R, 7aR)-4-methyloctahydro-cyclopenta [b][1,4]oxazin-7-yl]oxy}-5-(5-methyl-1,3-thiazol-2-yl)-N-{(1R)-1-[2-(trifluoromethyl)pyrimidin-5-yl]ethyl} benzamide] | 
20 | 6 nM | 59 nM | COC(=O)N1CCC(Oc2cc(C(=O)N[C@H](C)c3cnc(C(F)(F)F)nc3)cc(-c3ncc(C)s3)c2)CC1 [Example 226, Methyl 4-[3-(5-methyl-1,3-thiazol-2-yl)-5-({(1R)-1-[2-(trifluoromethyl)pyrimidin-5-yl]ethyl}carbamoyl)phenoxy]piperidine-1-carboxylate] | 
21 | 5 nM | 81 nM | Cc1cnc(-c2cc(OCC3(N(C)C)CC3)cc(C(=O)N[C@H](C)c3cnc(C(F)(F)F)nc3)c2)s1 [Example 213, 3-{[1-(dimethylamino)cyclopropyl]methoxy}-5-(5-methyl-1,3-thiazol-2-yl)-N-{(1R)-1-[2-(trifluoromethyl)pyrimidin-5-yl]ethyl} benzamide] | 
22 | 5 nM | 54 nM | CCOC(=O)N1CC[C@H](Oc2cc(C(=O)N[C@H](C)c3cnc(C(F)(F)F)nc3)cc(-c3ncc(C)s3)c2)C1 [Example 228, Ethyl (3S)-3-[3-(5-methyl-1,3-thiazol-2-yl)-5-({(1R)-1-[2-(trifluoromethyl)pyrimidin-5-yl]ethyl}carbamoyl)phenoxy]pyrrolidine-1-carboxylate] | 
23 | 5 nM | 38 nM | CCc1cnc(-c2cc(O[C@H]3CCOC3)cc(C(=O)N[C@H](C)c3cnc(C(F)(F)F)nc3)c2)s1 [Example 251, 3-(5-ethyl-1,3-thiazol-2-yl)-5-[(3S)-tetrahydrofuran-3-yloxy]-N-{(1R)-1-[2-(trifluoromethyl)pyrimidin-5-yl]ethyl}benzamide] | 
24 | 4 nM | 46 nM | Cc1cnc(-c2cc(OC3CCN(C)CC3F)cc(C(=O)N[C@H](C)c3cnc(C(F)(F)F)nc3)c2)s1 (stereo partly drawn) [Example 212, 3-[(3-fluoro-1-methylpiperidin-4-yl)oxy]-5-(5-methyl-1,3-thiazol-2-yl)-N-{(1R)-1-[2-(trifluoromethyl)pyrimidin-5-yl]ethyl} benzamide] | 
25 | 2 nM | 199 nM | Cc1cnc(-c2cc(O[C@H]3CC[C@H]4[C@H]3OCCN4C)cc(C(=O)N[C@H](C)c3cnc(C(F)(F)F)nc3)c2)s1 [Example 219, 3-{[(4aS,7S, 7aR)-4-methylocta-hydro-cyclopenta[b] [1,4]oxazin-7-yl]oxy}-5-(5-methyl-1,3-thiazol-2-yl)-N-{(1R)-1-[2-(trifluoromethyl)pyrimidin-5-yl]ethyl} benzamide] | 
26 | 2 nM | 22 nM | CCc1cnc(-c2cc(O[C@@H]3CCOC3)cc(C(=O)N[C@H](C)c3cnc(C(F)(F)F)nc3)c2)s1 [Example 242, 3-(5-ethyl-1,3-thiazol-2-yl)-5-[(3R)-tetrahydrofuran-3-yloxy]-N-{(1R)-1-[2-(trifluoromethyl)pyrimidin-5-yl]ethyl}benzamide] | 
